Experimental data as given in patent US20080146555A1, “Uses of Kinase Inhibitors and Compositions Thereof” (GPC Biotech, Inc, priority 2004, published 2008).
Counter-ions that a name gives are not always drawn. Like-named read-outs stand apart in the source and are kept apart here.

Assays:
Cdk5 = Cdk5 (Homo sapiens, UniProt Q00535); experiment: Cdk5 inhibition; format: biochemical
Excerpt: (§1) Further inhibition results for subject compounds of the invention against other CDKs and further kinases are shown in Table 5, Table II and described in Example 6.
(§2) Table 3, Table 4, Table 5 and Table II show the results obtained for inhibition of a broad range of such kinases for subject compounds of the invention.

NCI-Adr resistant = experiment: SRB cytotoxicity, P-glycoprotein expressing cells with and without verapamil; format: cell-based; conditions: for IC50: Homo sapiens, NCI/ADR-RES, 72 h, SRB; for relative resistance, NCI-Adr resistant −/+ verapamil: individual experiments; for RR (relative resistance) NCI-Adr resistant −/+ verapamil: ratio of mean IC50
Method: In these experiments, the P-glycoprotein expressing NCI-Adr resistant subline (Vickers et al., 1989. Mol Endocrinology 3 (1):157-164) was used. […] Briefly, cells were plated in 96 well dishes 24 hours prior to compound addition. Where noted, they were exposed to verapamil for 4 hours prior to compound addition and then throughout the treatment period (72 hours). The assay was terminated with the addition of cold TCA to a final concentration of 10% and the plates were incubated for one hour at 4° C. The plates were then washed 5 times with water and 100 μl of a Sulforhodamine B solution (4%) was added to each well. The plate was then incubated for 10 minutes at room temperature before removal of unbound dye by washing with 1% acetic acid.

Cdk4 = Cdk4 (Homo sapiens, UniProt P11802); experiment: Cdk4 inhibition; format: biochemical
Excerpt: as §1, §2

JNK2α2 = target: T1, JNK2α2 (Homo sapiens, UniProt P45984); experiment: JNK2α2 kinase assay; format: biochemical
T1 construct: purchased Upstate 14-329
Method: • 1. 10× Reaction Buffer: 500 mM Tris-HCl, pH 7.5, 1 mM EGTA, 1% 2-mercaptoethanol. • 2. ATF2 (amino acids 19-69) (Catalog #12-367): Prepare a 30 μM stock. Use 2.5 μl per assay point for a final concentration of 3 μM per assay. • 3. JNK2α2/SAPK1a, active: Dilute to 4-40 ng/μl with 1× Reaction Buffer containing 0.03% Brij-35. Use 2.5 μl per assay point. • 4. […] [γ-^32P]ATP: Stock 1 mCi/100 μl (3000 Ci/mmol, obtained from PerkinElmer, Catalog #BLU002A). Make 10 μl aliquots (100 μCi/vial). Before starting the assay, dilute the Magnesium/ATP Cocktail 1:1 with sterile, distilled water. Then dilute an aliquot of [γ-^32P]ATP to 1 μCi/μl with 90 μl of the diluted Magnesium/ATP Cocktail. […]
• 1. Add 2.5 μl of 10× Reaction Buffer to a microcentrifuge tube. • 2. Add 2.5 μl […] of ATF2 (amino acids 19-69). • 3. Add 2.5 μl (10-100 ng) of JNK2α2/SAPK1a, active. • 4. Add 7.5 μl of sterile, distilled water. • 5. Add 10 μl of the diluted [γ-^32P]ATP solution. • 6. Incubate with agitation for 10 minutes at 30° C. • 7. Transfer a 20 μl aliquot onto the center of a 2 cm×2 cm P81 paper square (Catalog #20-134). • 8. Wash the paper squares three times with 0.75% phosphoric acid for 5 minutes. • 9. Wash the paper squares once for 5 minutes with acetone. • 10. Transfer the paper squares to a scintillation vial and add 5 ml scintillation cocktail. • 11. Read in scintillation counter. Compare the cpm of enzyme samples to the cpm of control samples that contain no enzyme (background control).

[1] = test system: normal human fibroblast, IMR90; experiment: Calcein AM viability assay, IMR90; format: cell-based; conditions: IMR-90, text b600
Method: The potency of the subject kinase inhibitors, as measured by loss of cellular viability, was determined with the Calcein AM assay (Molecular Probes). Calcein AM is a substrate of intracellular esterases, which is cleaved only in viable cells to generate a fluorescent product that can be quantified with a fluorescent plate reader. The fluorescent signal is proportional to the number of viable cells, and thus loss of signal in response to the exposure of cells to the subject kinase inhibitors correlates with a loss of viability. This assay not only distinguishes cell cycle arrest, in which cells may still by viable, from loss of viability, and is thus well suited for the evaluation of the subject kinase inhibitors. A compound that is a potent cytotoxic agent may cause significant loss of cell viability in such an assay.
Cellular IC50's were determined in the human colorectal carcinoma cell line, HCT-116, and the normal human fibroblast, IMR90. Protein adjusted IC50's were also determined in HCT-116. Results of such viability assays are presented in Table 2 (HCT-116 (viability/protein adjusted) and IMR-90). IC50's (μM, non-protein adjusted) for the viability assay against HCT-116 cells are shown for further compounds of the invention in Table 4.
HCT-116 or IMR90 cells were recovered from sub-confluent plates by trypsinization and 1,000 or 4,000 cells, respectively, were plated in 24-well dishes and incubated overnight at 37° C., 5% CO2. HCT-116 cells were cultured in RPMI-1640, 10% FCS, and IMR90 cells were cultured in Minimum Essential Medium-alpha, 10% FCS. After overnight incubation to allow adherence, the media was aspirated from each well and replaced with media containing a test compound at a concentration from 0 to 250 nM, spanning a total of 7 doses. The plates were returned to the incubator and cultured for an additional 72 hours (3 days). […] After 72-hours incubation with the test compound, the cells were washed twice with 1×PBS, taking special care to remove all residual buffer.
A 5 μM Calcein AM solution was prepared by dissolving a 50 μg aliquot of Calcein (Molecular Probes catalog #C3100) in 50 μl DMSO. After the Calcein had completely dissolved (10 minutes at room temperature), it was diluted into 10 ml PBS. Calcein/PBS (0.5 ml) was added to each well. The plates were incubated for 75 minutes at 37° C. (protected from light) and the fluorescent signal was read on a fluorescent plate reader (excitation 485/20 and emission 530/25).

[2] = kinase panel, 10 μM ATP, read-out: JNK2α2 IC50
[3] = read-out: MAPK9 Inhibition (IC50)

T1 sequence (P45984 whole entry): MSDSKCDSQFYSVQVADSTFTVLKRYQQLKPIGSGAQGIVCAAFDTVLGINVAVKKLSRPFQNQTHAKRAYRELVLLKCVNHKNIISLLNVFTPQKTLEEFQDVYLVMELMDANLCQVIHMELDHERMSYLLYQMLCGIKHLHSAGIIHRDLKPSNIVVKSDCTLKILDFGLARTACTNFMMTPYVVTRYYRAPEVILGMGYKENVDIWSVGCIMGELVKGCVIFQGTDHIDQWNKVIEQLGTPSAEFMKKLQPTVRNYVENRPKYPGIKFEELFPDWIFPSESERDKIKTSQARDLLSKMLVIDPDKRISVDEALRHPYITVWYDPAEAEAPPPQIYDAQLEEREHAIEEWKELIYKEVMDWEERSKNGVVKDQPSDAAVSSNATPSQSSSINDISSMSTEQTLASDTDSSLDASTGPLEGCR
Chain of Cdk4 (P11802 whole entry, species assumed): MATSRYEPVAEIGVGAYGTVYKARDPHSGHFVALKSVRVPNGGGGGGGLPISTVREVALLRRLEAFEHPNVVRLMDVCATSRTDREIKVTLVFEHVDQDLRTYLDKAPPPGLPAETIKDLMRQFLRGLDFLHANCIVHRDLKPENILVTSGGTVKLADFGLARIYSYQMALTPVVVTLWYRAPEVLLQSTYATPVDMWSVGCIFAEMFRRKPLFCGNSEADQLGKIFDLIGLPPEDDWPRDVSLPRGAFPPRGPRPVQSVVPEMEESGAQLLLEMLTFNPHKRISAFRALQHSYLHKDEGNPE
Chain of Cdk4 (P24385 whole entry partner, species assumed): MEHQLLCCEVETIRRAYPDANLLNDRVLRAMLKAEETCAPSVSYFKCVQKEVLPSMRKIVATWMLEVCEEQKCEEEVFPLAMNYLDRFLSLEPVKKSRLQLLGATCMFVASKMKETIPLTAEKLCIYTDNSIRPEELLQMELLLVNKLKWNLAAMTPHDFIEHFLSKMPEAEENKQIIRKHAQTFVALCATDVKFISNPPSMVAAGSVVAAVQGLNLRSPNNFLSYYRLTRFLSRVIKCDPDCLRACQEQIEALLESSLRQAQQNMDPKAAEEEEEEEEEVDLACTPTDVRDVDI
Chain of Cdk5 (Q00535 whole entry, species assumed): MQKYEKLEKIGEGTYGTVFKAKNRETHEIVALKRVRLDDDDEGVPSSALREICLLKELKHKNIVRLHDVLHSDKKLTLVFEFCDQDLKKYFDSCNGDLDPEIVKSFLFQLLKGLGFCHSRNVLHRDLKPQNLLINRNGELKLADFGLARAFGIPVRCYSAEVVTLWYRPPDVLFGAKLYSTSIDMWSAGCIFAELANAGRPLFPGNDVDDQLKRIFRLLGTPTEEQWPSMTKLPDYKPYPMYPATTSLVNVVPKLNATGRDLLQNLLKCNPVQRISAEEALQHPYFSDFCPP
Chain of Cdk5 (Q15078 whole entry partner, species assumed): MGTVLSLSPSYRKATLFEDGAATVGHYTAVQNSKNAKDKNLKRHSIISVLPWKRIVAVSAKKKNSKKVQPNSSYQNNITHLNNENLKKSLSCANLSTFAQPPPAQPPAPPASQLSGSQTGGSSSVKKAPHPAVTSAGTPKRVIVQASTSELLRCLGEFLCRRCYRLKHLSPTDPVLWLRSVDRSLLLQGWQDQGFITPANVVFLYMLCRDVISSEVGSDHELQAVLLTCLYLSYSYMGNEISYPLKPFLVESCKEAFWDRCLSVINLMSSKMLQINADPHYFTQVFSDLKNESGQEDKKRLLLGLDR

Row | Structure (SMILES) | IC50 (Cdk5) [nM] | IC50 (NCI-Adr resistant; verapamil 12.5 μg/ml) [nM] | IC50 (NCI-Adr resistant; without verapamil) [nM] | relative resistance, NCI-Adr resistant −/+ verapamil (NCI-Adr resistant) | RR (relative resistance) NCI-Adr resistant −/+ verapamil (NCI-Adr resistant) | IC50 (Cdk4) [nM] | IC50 (JNK2α2; [2]) [nM] | IC50 (JNK2α2; [3]) [nM] | IC50 [1] [nM]
1 | CC(C)N1CCN(C(=O)COc2ccc(-c3n[nH]c4c3C(=O)c3c(NC(=O)NN5CCOCC5)cccc3-4)cc2)CC1 [Compound A37] | < 5 | 135 | 3430 | about 25 fold | 25.4 | < 50 | 10 to 100 | < 50 | < 50
2 | COCCN1CCN(Cc2ccc(-c3n[nH]c4c3C(=O)c3c(NC(=O)NN5CCOCC5)cccc3-4)cc2)CC1 [Compound B16, N-[3-(4-{[4-(2-methoxyethyl)piperazinyl]methyl}phenyl)-4-oxoindeno[2,3-d]pyrazol-5-yl](morpholin-4-ylamino)carboxamide dihydrochloride] | < 5 | 80 | 1870 | about 25 fold | 23.4 | > 100 | < 100 | < 100 | < 100
